According to patent US8420307B2, “Sperm cryoprotective media” (The Jackson Laboratory, priority 2006, dated 2013):

Experiments:
C57BL/6 Sperm = test: Post-thaw motility of mouse sperm (IVOS computerized semen analysis); type: cell-based; details: for IVF Fit: motility of at least 5% is required to achieve fertilization in IVF
Experimental: To determine the concentration, motility, and progressive motility of “freshly-collected” sperm, the sperm is typically diluted 1:20 in either phosphate buffered saline or Cooks Mouse Vitro Fert (Cook Australia; Queensland, Australia; (Quinn et al., 1995)). To assess thawed sperm, sperm is incubated in IVF medium for an hour, at a dilution of 1:50 in the IVF drop. It is then loaded into a Hamilton Thom IVOS computerized semen analyzer (Hamilton Thom, Beverly, Mass.). For measurement, the calibration parameters are set as follows: • Apply Sort: 2 • Frames acquired: 30 • Frame rate: 60 Hz • Minimum contrast: 30 • Minimum Cell Size: 4 pixels • Minimum Static Contrast: 15 • Straightness (STR), Threshold: 50% • Low VAP Cutoff: 10.0 μm/s • Medium VAP Cutoff: 50.0 μmis • Low VSL Cutoff: 0.0 grids • Head Size, Non-Motile: 13 pixels • Head Intensity, Non-Motile: 75 • Static Head Size: 0.57 to 2.91 • Static Head Intensity: 0.14 to 1.84 • Static Elongation: 0 to 87 • Slow Cells Motile: YES • Magnification: 0.82 • Video Source Camera • Video Frequency: 60 • Bright Field No • Brightness for LED: 2663 • Brightness for Ident: 3000 • Temperature, Set: 37° C.
If the compound is capable of reducing ROS at the tested concentration, then its effect on sperm motility and fertilization is tested. While the sperm motility assay is a helpful fast screening tool in the case of mouse, this assay is not required for mouse and one can perform only the IVF assay in the case of mouse. For other species, e.g. bovine, the sperm motility assay together with the fluorescence assay is sufficient. The sperm motility assay can be done either with fresh or cryopreserved sperm. For example, the motility can be determined as described in Example 6 (Determination of Sperm Concentration and Motility), using an IVOS instrument. Briefly, C57BL/6 sperm were diluted 1:50 in pre-warmed and gassed mouse vitro fert (Cook's; Spencer, Ind.) under light mineral oil. The samples were incubated for an hour at 37° C., in a humidified atmosphere of 5% CO2, 5% O2 and 90% nitrogen in a K-MINC-1000 bench top incubator (Cook's; Spencer, Ind.). After incubation, the sperm were drawn into 0.1×2.0 mm I.D. tubes (VitroCom Inc. Mt Lks. N.J.) using capillary action and 3 manually selected fields per sample were analyzed for motility using the Hamilton Thorn (Beverly, Mass.) integrated visual optics system (IVOS) for computerized semen analysis. Applicants have shown that sperm frozen in CPM containing no free radical scavenger, 0.477 mM MTG, 0.1 mM DTT, 1 mM DTT, 5 mM DTT, 20 mM DTT, 0.5 mM GSH, 1 mM GSH, 5 mM GSH or 50 mM GSH can be assessed for motility and that motility of at least 5% is required to achieve fertilization in IVF.

[1] = tested on: reactive oxygen species within cryopreserved mouse sperm; test: Intracellular reactive oxygen species by CM-H2DCFDA dye and flow cytometry after tert-butyl hydroperoxide challenge; type: cell-based; details: for level of reactive oxygen species within cryopreserved mouse sperm (relative fluorescence): C57BL/6 sperm, diluted 1:1 with solution supplemented with 954 mM MTG, 1 mM GSH or 2 mM DTT before freezing, FIGS. 7A and 7B
Experimental: Sperm cryopreserved in the presence and absence of the free radical scavenger, the reducing agent monothioglycerol (MTG), are loaded with the green fluorescent dye CM-H2DCFDA to measure intracellular reactive oxygen species. The sperm are challenged with varying levels of Tert-Butylhydrogen peroxide to induce oxidative damage and green fluorescence is measured using flow cytometry.
For example, the capability to reduce ROS can be tested by a dye/sperm method as described in Example 4 and also see publications by Nelid et al 2006 and Guthrie and Welch 2006. Either fresh or cryopreserved sperm can be used in this assay. For example, sperm collected from the vas deferens and epididymis of two C57BL/6J mice into 1 mL of a solution containing 3% skim milk (w/v; BD Diagnostics; cat #232100) and 18% raffinose (w/v; Sigma; cat #R7630). A fraction of the collected sperm was diluted 1:1 in the same skim milk raffinose solution while another fraction was diluted 1:1 using the skim milk raffinose solution supplemented with […] monothioglycerol (MTG; Sigma Aldrich; cat #M6145). Another set of C57BL/6J males was used to collect sperm and dilute in the skim milk raffinose solution with 1 mM glutathione (GSH; Sigma Aldrich; cat #G6013) or 2 mM dithiothreitol (DTT; Sigma Aldrich; cat #646563). The sperm was cryopreserved as described in Example 1 and stored in liquid nitrogen for at least 24 hours.
To determine if MTG, GSH or DTT can act as a free radical scavenger, the sperm were thawed and loaded with the green fluorescent dye 5-(and-6)-chloromethyl-2′,7′-dichlorodihydrofluorescein diacetate (CM-H2DCFDA; Invitrogen C6827). This dye is a cell-permeant indicator for reactive oxygen species that is nonfluorescent until removal of the acetate groups by intracellular esterases and oxidation occurs within the cell. The emission of fluorescence correlates with ROS generation as a result of DCFH oxidation. To load the sperm, at least 150 μL of sperm were thawed and diluted 1:1 in a sperm incubation media described by Bath et al. ((Bath 2003); 123 mM NaCl; 4.7 mM KCl; 0.2 mM MgSO4.7H2O; 10 mM;NaHCO3 21 mM HEPES; 0.33 mM sodium pyruvate; 4.6 mM glucose; 100 IU/mL penicillin G; 1.33 mg/mL BSA). The lyophilized dye was resuspended in dimethylsulfoxide to a concentration of 432.5 μM and then added to the cells, such that the final dye concentration was 40 μM. […] The samples were loaded onto either a FACScan (BD Biosciences; Franklin Lakes, N.J.) or FACSCalibur (BD Biosciences; Franklin Lakes, N.J.) flow cytometer and the green fluorescence was measured on at about 5,000 viable sperm. […]

[2] = C57BL/6 sperm frozen in CPM containing 1 mM free radical scavenger
[3] = C57BL/6 sperm frozen in CPM containing 5 mM free radical scavenger

N[C@@H](CCC(=O)N[C@@H](CS)C(=O)NCC(=O)O)C(=O)O [GSH, reduced glutathione]
IVF Fit (C57BL/6 Sperm; 0.5 mM): yes
IVF Fit (C57BL/6 Sperm; 1 mM): yes
IVF Fit (C57BL/6 Sperm; 5 mM): yes
IVF Fit (C57BL/6 Sperm; 50 mM): no
Average Post Thaw Motility (C57BL/6 Sperm; C57BL/6 sperm frozen in CPM containing 0.5 mM free radical scavenger): 32%
Average Post Thaw Motility (C57BL/6 Sperm; [2]): 25.3%
Average Post Thaw Motility (C57BL/6 Sperm; [3]): 41.67%
Average Post Thaw Motility (C57BL/6 Sperm; C57BL/6 sperm frozen in CPM containing 50 mM free radical scavenger): 0.6%
level of reactive oxygen species within cryopreserved mouse sperm (relative fluorescence) [1]: limited the level of ROS

O[C@H](CS)[C@H](O)CS (racemic) [DTT, dithiothreitol]
IVF Fit (C57BL/6 Sperm; 0.1 mM): yes
IVF Fit (C57BL/6 Sperm; 1 mM): yes
IVF Fit (C57BL/6 Sperm; 5 mM): yes
IVF Fit (C57BL/6 Sperm; 20 mM): no
Average Post Thaw Motility (C57BL/6 Sperm; C57BL/6 sperm frozen in CPM containing 0.1 mM free radical scavenger): 24.6%
Average Post Thaw Motility (C57BL/6 Sperm; [2]): 34%
Average Post Thaw Motility (C57BL/6 Sperm; [3]): 17.6%
Average Post Thaw Motility (C57BL/6 Sperm; C57BL/6 sperm frozen in CPM containing 20 mM free radical scavenger): 1.6%
level of reactive oxygen species within cryopreserved mouse sperm (relative fluorescence) [1]: limited the level of ROS

OCC(O)CS (stereo not shown) [MTG, monothioglycerol]
IVF Fit (C57BL/6 Sperm; 0.477 mM): yes
Average Post Thaw Motility (C57BL/6 Sperm; C57BL/6 sperm frozen in CPM containing 0.477 mM free radical scavenger): 16%
level of reactive oxygen species within cryopreserved mouse sperm (relative fluorescence) [1]: limited the level of ROS
ROS in cryopreserved sperm (green fluorescence) ([1]; sperm from C57BL/6J (B6) and BALB/cByJ (BALB/cBy) mice, FIG. 3): reduces the ROS
